Structures are written as SMILES.

23 compounds from patent publication US8063225B2, “Tricyclic compound derivatives useful in the treatment of neoplastic diseases, inflammatory disorders and immunomodulatory disorders” (Chembridge Corporation, priority 2006, dated 2011) can be followed below.

Experiment [1] deals with K562. Briefly: Cell proliferation inhibition, Cell Titer-Glo, K562. The class given is cell-based. Particulars: Homo sapiens; cell proliferation assay, K562 cells. The gist of the method:
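K562 cells were seeded at 2500-5000 cells per well in white, clear-bottomed 384-well culture plates and treated with dilutions of test compounds for typically 3 days. Viable cells were quantified with the Cell Titer-Glo Luminescent Cell Viability Assay (Promega), which measures total ATP, read on a luminescence plate reader to derive IC50 values for proliferation inhibition.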
On the technique in general: ATP-based viability assays read luminescence as a measure of living cells.

In experiment [2] the test system is Karpas-299. Briefly: Cell proliferation inhibition, Cell Titer-Glo, Karpas-299. It counts as cell-based. Conditions: Homo sapiens; cell proliferation assay, Karpas-299 cells. The gist of the method: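 Karpas 299 cells were seeded into white, clear-bottomed 384-well culture plates at 2500-5000 cells per well and exposed to serial dilutions of test compounds for about 3 days. Viable cell numbers were then measured with the Cell Titer-Glo Luminescent Cell Viability Assay (Promega), which detects total ATP, and IC50 values for proliferation inhibition were derived.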

The target in experiment [3] is T1, Alk (Homo sapiens, UniProt Q9UM73).
T1 construct: 6×His- or GST-tagged kinase domain fragments of the corresponding RTKs expressed in baculovirus system; host or cells: baculovirus system
T1 sequence (Q9UM73 1116-1392 limits assumed, species assumed): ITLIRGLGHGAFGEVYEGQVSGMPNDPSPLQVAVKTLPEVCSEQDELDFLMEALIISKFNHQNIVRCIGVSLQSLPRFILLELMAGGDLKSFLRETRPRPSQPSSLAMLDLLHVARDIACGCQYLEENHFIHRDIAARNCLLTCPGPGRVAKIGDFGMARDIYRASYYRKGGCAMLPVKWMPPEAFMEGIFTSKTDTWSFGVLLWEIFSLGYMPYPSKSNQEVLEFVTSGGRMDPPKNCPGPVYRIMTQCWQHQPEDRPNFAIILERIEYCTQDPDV
Briefly: Tyrosine kinase assay (Kinase-Glo or AlphaScreen), Alk. Conditions: biochemical tyrosine kinase assay. The gist of the method:
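Baculovirus-expressed His- or GST-tagged kinase domains with poly(Glu-Tyr) substrate, 10 μM ATP, pH 7.5 Tris with MgCl2/MnCl2. Kinase-Glo: 60 min at 37 °C, residual ATP by luminescence; AlphaScreen: 30 min at RT, then anti-phosphotyrosine beads 60 min. Eight concentrations, 1 nM to 20 μM; IC50 by nonlinear regression.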
For orientation: Kinase-Glo measures the ATP left after a reaction by luminescence.

The IC50 is the concentration that inhibits the measured activity by half. Higher therefore signals a need for much substance. As to `Cc1ccc(OC[C@H](O)CNc2cc[nH]c(=O)c2-c2nc3c(C)c4c(cc3[nH]2)C(=O)N(C2CCN(C)CC2)C4=O)c(C)c1` [compound 110], the IC50 was in the range of 5 to 15 µM in experiment [1], 0.5 to 5 µM in experiment [2] and 0.5 to 5 µM in experiment [3].
On to `Cc1cc(C)n(C[C@H](O)CNc2cc[nH]c(=O)c2-c2nc3cc4c(cc3[nH]2)C(=O)N(C2CCN(C)CC2)C4=O)n1` [compound 92], for which the IC50 in experiment [1], in experiment [2] and in experiment [3] was > 15 µM in each case.
In the case of `Cc1ccc(OC[C@@H](O)CNc2cc[nH]c(=O)c2-c2nc3cc4c(cc3[nH]2)C(=O)N([C@@H]2CCN(C)C2)C4=O)c(C)c1` [compound 107], the IC50 in experiment [1] was > 15 µM; in experiment [2], > 15 µM; in experiment [3] it was 0.5 to 5 µM.
Take `Cc1ccc(OC[C@H](O)CNc2cc[nH]c(=O)c2-c2nc3cc4c(cc3[nH]2)C(=O)N(C2CCN(C)CC2)C4=O)cc1Cl` [compound 99]: the results for the IC50 in experiment [1], in experiment [2] and in experiment [3] were > 15 µM, > 15 µM and 5 to 15 µM, respectively.
Turning to `CN1CCC(N2C(=O)c3cc4nc(-c5c(NC[C@@H](O)COc6cccc(Cl)c6F)cc[nH]c5=O)[nH]c4cc3C2=O)CC1` [compound 96], the IC50 in experiment [1], in experiment [2] and in experiment [3] was > 15 µM each time.
With `Cc1ccc(Cl)c(C)c1OC[C@H](O)CNc1cc[nH]c(=O)c1-c1nc2cc3c(cc2[nH]1)C(=O)N(C1CCN(C)CC1)C3=O` [compound 111], the IC50 is > 15 µM in experiment [1], 0.5 to 5 µM in experiment [2] and 0.5 to 5 µM in experiment [3].
In the case of `Cc1cc(C)c(OC[C@H](O)CNc2cc[nH]c(=O)c2-c2nc3cc4c(cc3[nH]2)C(=O)N(C2CCN(C)CC2)C4=O)c(CS(C)(=O)=O)c1` [compound 84], the IC50 is > 15 µM in experiment [1], > 15 µM in experiment [2] and 0.5 to 5 µM in experiment [3].
For `CN1CCC(N2C(=O)c3cc4nc(-c5c(NC[C@@H](O)COc6cccc(OC(F)(F)C(F)F)c6)cc[nH]c5=O)[nH]c4cc3C2=O)CC1` [compound 91], the IC50 in experiment [1] is > 15 µM; in experiment [2], 5 to 15 µM; in experiment [3], 0.5 to 5 µM.
Turning to `Cc1ccc(OC[C@@H](O)CNc2cc[nH]c(=O)c2-c2nc3cc4c(cc3[nH]2)C(=O)N(C2CCN(C)CC2)C4=O)c(C)c1` [compound 64], the IC50 in experiment [1] is 5 to 15 µM; in experiment [2], > 15 µM; in experiment [3] it was 5 to 15 µM.
With `Cc1ncsc1CCN1C(=O)c2cc3nc(-c4c(NC[C@@H](O)c5cccc(Cl)c5)cc[nH]c4=O)[nH]c3cc2C1=O` [compound 32], the IC50 in experiment [1], in experiment [2] and in experiment [3] was > 15 µM in each case.
`O=C1c2cc3nc(-c4c(NC[C@@H](O)c5cccc(Cl)c5)cc[nH]c4=O)[nH]c3cc2C(=O)N1[C@@H]1CN2CCC1CC2` [compound 33]: the IC50 in experiment [1] is 0.5 to 5 µM; in experiment [2], > 15 µM; in experiment [3], 0.5 to 5 µM.
Regarding `CN1CCC(N2C(=O)c3cc4nc(-c5c(NC[C@@H](O)COc6ccc7ccccc7c6)cc[nH]c5=O)[nH]c4cc3C2=O)CC1` [compound 88], the IC50 in experiment [1] was in the range of 5 to 15 µM; in experiment [2], 5 to 15 µM; in experiment [3], 0.5 to 5 µM.
For the compound `CN1CCC(N2C(=O)c3cc4nc(-c5c(N[C@H](CO)Cc6c[nH]cn6)cc[nH]c5=O)[nH]c4cc3C2=O)CC1` [compound 2], the results for the IC50 in experiment [1], in experiment [2] and in experiment [3] were 5 to 15 µM, 5 to 15 µM and > 15 µM, respectively.
Regarding `O=C1c2cc3nc(-c4c(NC[C@@H](O)c5cccc(Cl)c5)cc[nH]c4=O)[nH]c3cc2C(=O)N1C[C@@H]1CCCO1` [compound 29], the IC50 in experiment [1] is 0.5 to 5 µM; in experiment [2], 5 to 15 µM; in experiment [3], > 15 µM.
As to `Cc1ccc(OC[C@@H](O)CNc2cc[nH]c(=O)c2-c2nc3cc4c(cc3[nH]2)C(=O)N([C@H]2CCN(C)C2)C4=O)c(C)c1` [compound 106], the IC50 in experiment [1] was 5 to 15 µM; in experiment [2], > 15 µM; in experiment [3], 0.5 to 5 µM.
For `Cc1cc(C)c(OC[C@H](O)CNc2cc[nH]c(=O)c2-c2nc3cc4c(cc3[nH]2)C(=O)N(C2CCN(C)CC2)C4=O)c(C)c1` [compound 98] the same measures were > 15 µM, > 15 µM and 0.5 to 5 µM.
In the case of `CN1CCC(N2C(=O)c3cc4nc(-c5c(NC[C@@H](O)COc6cccc(-c7ccccc7)c6)cc[nH]c5=O)[nH]c4cc3C2=O)CC1` [compound 89], the figures for the IC50 in experiment [1], in experiment [2] and in experiment [3] were 5 to 15 µM, 0.5 to 5 µM and 0.5 to 5 µM, respectively.
`COc1cccc(OCC(O)CNc2cc[nH]c(=O)c2-c2nc3cc4c(cc3[nH]2)C(=O)N(C2CCN(C)CC2)C4=O)c1` (stereo not drawn) [compound 6] returned an IC50 in experiment [3] of 0.5 to 5 µM.
On to `CC(C)(CO)CN1C(=O)c2cc3nc(-c4c(NC[C@@H](O)c5cccc(Cl)c5)cc[nH]c4=O)[nH]c3cc2C1=O` [compound 26], for which the IC50 in experiment [1] was 5 to 15 µM; in experiment [3], > 15 µM.
Take `O=C1c2cc3nc(-c4c(NC[C@@H](O)c5cccc(Cl)c5)cc[nH]c4=O)[nH]c3cc2C(=O)N1CCc1ccncc1` [compound 28]: the results for the IC50 in experiment [1], in experiment [2] and in experiment [3] were > 15 µM, > 15 µM and 5 to 15 µM, respectively.
As for `O=C1c2cc3nc(-c4c(NC[C@@H](O)c5cccc(Cl)c5)cc[nH]c4=O)[nH]c3cc2C(=O)N1[C@H]1CN2CCC1CC2` [compound 34], the IC50 was > 15 µM in experiment [1], > 15 µM in experiment [2] and 0.5 to 5 µM in experiment [3].
Regarding `Cc1ccc(OCC(O)CNc2cc[nH]c(=O)c2-c2nc3cc4c(cc3[nH]2)C(=O)N(CC2CCN(CCO)CC2)C4=O)c(C)c1` (stereo not drawn) [compound 37], the IC50 is > 15 µM in experiment [1], > 15 µM in experiment [2] and 5 to 15 µM in experiment [3].
In the case of `CN1CCC(N2C(=O)c3cc4nc(-c5c(NC[C@@H](O)COc6cccc7ccccc67)cc[nH]c5=O)[nH]c4cc3C2=O)CC1` [compound 87], the IC50 was in the range of 5 to 15 µM in experiment [1], 5 to 15 µM in experiment [2] and 0.5 to 5 µM in experiment [3].
